Assay results as given in US20080020048A1, “Treatment of Respiratory Disease” (priority 2004, published 2008).

Columns and labels:
asthma [1] = conditions: inhaled; cited from earlier work
asthma [2] = conditions: single administration of metered-dose aerosol; cited from earlier work
[3] = Glycopyrrolate therapy, summary of findings of the studies; type: in vivo
From the text: Further, it is apparent that different dosages of the drug, without side-effects, are essentially equivalent in effect. […] This makes the medicament particularly suitable for the treatment of bronchospasm, or as a rescue medication.

Tachycardia ([3]; problems associated with anti-muscarinics): apparently absent
Compound: C[N+]1(C)CCC(OC(=O)C(O)(c2ccccc2)C2CCCC2)C1 (centres unmarked) [glycopyrrolate]
Duration of effective treatment (asthma [1]): up to 12 hours
Duration of effective treatment, maximal (asthma [1]): up to 8 hours
Period of bronchodilation (asthma [2]): 12 h
Onset of bronchodilation ([3]; in vivo): high and immediate
